Source: patent US20180318381A1, “Methods of Treatment of Rhabdomyolysis” (University of Pittsburgh - Of the Commonwealth System of …, priority 2015, published 2018)

What was measured:
[1] = test system: amyotrophic lateral sclerosis mouse model; details: ALS mouse model; cited from earlier work
mice treated with azide = details: supplementation at the same time as azide; cited from earlier work
Friedrich's ataxia cells = details: in response to oxidative stress; cited from earlier work

## CCNC(=O)[C@]12CCC(C)(C)C[C@H]1[C@H]1C(=O)C=C3[C@@]4(C)C=C(C#N)C(=O)C(C)(C)[C@@H]4CC[C@@]3(C)[C@]1(C)CC2 [CDDO-EA, 2-cyano-3,12-dioxooleana-1,9-dien-28-oic acid-ethyl amide]
[1]
  survival: improve survival

## CC(=O)OC[C@H]1O[C@@H](n2ccc(=O)[nH]c2=O)[C@H](OC(C)=O)[C@@H]1OC(C)=O [PN401, uridine triacetate]
Mice treated with azide
  survival of the animals: improved survival

## CC1(C)CC[C@]2(NC(=O)C(C)(F)F)CC[C@]3(C)[C@H](C(=O)C=C4[C@@]5(C)C=C(C#N)C(=O)C(C)(C)[C@@H]5CC[C@]43C)[C@@H]2C1 [RTA408, N-(2-cyano-3,12-dioxo-28-noroleana-1,9(11)-dien-17-yl)-2,2-difluoro-propanamide]
Friedrich's ataxia cells
  antioxidant gene expression: improve antioxidant gene expression

## CCCCCCC(=O)OCC(COC(=O)CCCCCC)OC(=O)CCCCCC [triheptanoin, 1,3-di(heptanoyloxy)propan-2-yl heptanoate]
Patients with LC-FAODs; 7 subjects with peak CK before and after treatment, P=0.1279
  decrease in peak CK levels (trend): 68%
Patients with LC-FAODs; 9 subjects with hypoglycemia problems, P=0.0091
  decline in hypoglycemia event rate per year: 96%
Patients with LC-FAODs; LC-FAOD patients, FIG. 14
  hospitalizations: reduced hospitalizations
  hypoglycemic hospitalizations: nearly eliminated
  number of days of hospital stay if hospitalized: reduced
  number of hospitalization days with rhabdomyolysis: decreased
  number of hospitalizations with rhabdomyolysis: did not reduce
Patients with LC-FAODs; after treatment (from 85,855 before), 7 subjects
  peak CK levels: 27,597 units
Patients with LC-FAODs; after treatment (vs 0.92 before), n=9
  hypoglycemia event rate per year: 0.04 per year
Patients with LC-FAODs; after treatment (vs 8.42 before), n=9, P=0.0257
  hypoglycemia-related hospitalization days/year: 0.18 days/year
Patients with LC-FAODs; after triheptanoin initiation (vs 1.94 before), n=16
  hospitalization event rate: 1.26
Patients with LC-FAODs; after triheptanoin initiation (vs 5.94 before), n=9, P=0.1224
  rhabdomyolysis hospitalization days/year: 2.36 days/year
Patients with LC-FAODs; after triheptanoin initiation (vs 17.55 before), n=15
  mean hospitalization days/year: 5.76 days/year
Patients with LC-FAODs; patients having long chain FAODs
  hypoglycemia in patients: essentially eliminates hypoglycemia
Patients with LC-FAODs; patients having long chain FAODs on triheptanoin
  episodes of rhabdomyolysis: continue to have episodes of rhabdomyolysis
Patients with LC-FAODs; period after triheptanoin initiation vs before, n=15, P=0.0242
  decrease in mean hospitalization days/year: 67%
